Reference: EP0904128B1, “COMPOSITION AND SYSTEM FOR IONTOPHORETIC TRANSDERMAL DELIVERY OF DRUGS” (priority 1996, dated 1997)
Read-outs that look alike come from different tables or passages of the source.

Columns and labels:
[1] = human, pH 7.4
Procedure: Electrodes for iontophoresis were prepared from silver wire and silver chloride (Aldrich-Chemie, Steinheim, Germany). Direct current (0,5 mA/cm^2) during iontophoresis was delivered by HP 6181C DC current source (Hewlett-Packard, Cupertino, CA) from the electrodes to the diffusion chambers via salt bridges. Salt bridges were prepared by injecting 1 M NaCl-gel (3 % agar) inside plastic tubing (diameter 4 mm, length ca. 15 cm). […] Transdermal permeation of ions increase most during iontophoresis due to electrostatic repulsion. […] Because Ag/AgCl-electrodes cause precipitation of phosphates, we used HEPES-buffer at pH 7,4 during the iontophoresis experiments. […] The chambers were connected in series as constant DC-current was used.

[2] = for Tacrine permeation Flux: Average ± standard deviation
[3] = in vivo; cited from earlier work
[4] = experiment 3; for salicylate release / permeation through epidermis: epidermis between fiber disc and phosphate buffer pH 7.4 (6 mM, µ=0.2), zero-order after lag time
Procedure: Drug release in vitro from the fiber discs at 37 °C was tested in Franz diffusion cells (Crown Glass Co. Inc., Somerville, NJ) (Fig. 3). […] The fiber discs 10 were placed in the diffusion cells so that one side of the anionic ion-exchange fiber was exposed to the dissolution medium. The dissolution medium was pH 7.4 phosphate buffer saline (PBS, 143 mM, µ=0.15 (µ = ionic strength)) in experiment 1 and pH 7.4 phosphate buffer (6 mM, µ=0.2) in experiments 2 and 3. To assess the effect of the skin on drug release (experiment 3), a piece of epidermis 13 was placed between the fiber disc and buffer solution. At fixed times, samples of 250 µl were withdrawn and the drug concentration in the samples were determined by using HPLC (Beckman System Gold, Beckman Instrument, San Ramon, CA) with a Supelcosil LC-18-DB column (5 µm, 150 x 4.6 mm) (Supelco Inc., Rohm and Haab Co., Bellefonte, PA). The mobile phase was a binary mixture of methanol (40 % v/v) and pH 7.0 phosphate buffer (60 %). The detection wavelenght was 298 nm, and the flow rate of 1.0 ml/min, the retention time was 2.6 min.

[5] = pH 7.0 phosphate buffer (200 mM) containing 6.27 g/l NaCl; donor solution 50 µg/ml; Hirvonen 1994; cited from earlier work

SMILES	iontophoretic delivery compared to passive permeation from the ion-exchange fiber ([1]; 3.5 %)	lag-time of drug permeation ([1]; 5 %)	Tacrine permeation Flux ([2]; Passive permeation (3.5 % in ion-exchange fiber)) [µg/ h per cm^2]	Tacrine permeation Flux ([2]; Passive permeation (5 % solution)) [µg/ h per cm^2]	Lag-time of permeation ([2]; human, 5 %, pH 7)	Delivery of tacrine across the skin from the cationic ion-exchange fiber ([2]; passive, 3,5 % tacrine in cationic ion-exchange fiber)	Steady-state flux of tacrine across human skin in vitro ([2]; passive, 5 % solution, pH 7,4)	Clearance CL [3]	elimination half-life T1/2 [3]	peroral bioavailability [3]	salicylate release / permeation through epidermis [4]	salicylate release / permeation through epidermis ([4]; listed as Salicylate) [µg/h]	Lag time before steady state release ([4]; with skin)	in vitro permeability of anionic salicylate through skin [5]
Nc1c2c(nc3ccccc13)CCCC2 [tacrine, 9-amino-1,2,3,4-tetrahydroacridine]	> 10 000 -fold	about 0,5 h	0.003±0.0006	2.95±0.66	ca. 24 h	about 0,003 g/h per cm^2	2,95 g/h per cm^2	about 150 l/h	1,4 - 3,6 h	5 - 35%				
O=C([O-])c1ccccc1O.[Na+] [salicylate, Sodium salicylate]											about 0.08 µg/h	0.08	about 2 h	about 0.34 µg/cm^2/h
